From patent publication US12492186B2, “Bicyclic heterocyclic compounds useful as IRAK4 inhibitors” (BRISTOL-MYERS SQUIBB COMPANY, priority 2019, dated 2025)

What was measured:
IRAK4 = IRAK4 (Homo sapiens (Human), UniProt Q9NWZ3); assay: IRAK4 Inhibition Assay; assay type: biochemical; details: ATP 500 μM; IRAK4 0.6 nM; 60 min room temperature; Caliper LABCHIP 3000
Human whole blood = assay: IRAK4 Whole Blood Assay (IL-6 levels after stimulation with TLR2 agonist lipoteichoic acid); assay type: cell-based; details: 10 μg/mL lipoteichoic acid, 5 hours
Summary of the method: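 ACD-A anticoagulated human whole blood preincubated with compound 60 min at 37 °C, 5% CO2, then stimulated 5 h with lipoteichoic acid at 10 μg/mL final. IL-6 in supernatants measured by flow cytometry bead assay.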

Sequence of IRAK4 (Q9NWZ3 whole entry, species assumed): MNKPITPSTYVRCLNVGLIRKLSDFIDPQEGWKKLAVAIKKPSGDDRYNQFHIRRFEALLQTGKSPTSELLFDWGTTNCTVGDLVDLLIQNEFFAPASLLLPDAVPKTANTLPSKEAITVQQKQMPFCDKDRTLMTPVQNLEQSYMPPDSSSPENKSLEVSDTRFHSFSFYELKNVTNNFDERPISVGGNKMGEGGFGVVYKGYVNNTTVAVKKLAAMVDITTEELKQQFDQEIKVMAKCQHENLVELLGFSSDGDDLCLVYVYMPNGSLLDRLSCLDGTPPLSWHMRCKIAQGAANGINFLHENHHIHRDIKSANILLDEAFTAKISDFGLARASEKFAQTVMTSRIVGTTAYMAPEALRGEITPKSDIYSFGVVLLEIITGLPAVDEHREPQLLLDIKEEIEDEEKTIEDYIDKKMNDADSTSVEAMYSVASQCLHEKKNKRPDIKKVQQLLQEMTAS

IC50 (IRAK4) [nM]	EC50 (Human whole blood) [nM]	SMILES
4.3	662	CC(=O)N[C@H]1CC[C@H](NC(=O)c2cnc3ccc(-c4cncs4)nc3c2NC(C)C)CC1 [Example 156, N-((1r,4r)-4-acetamidocyclohexyl)-4-(isopropylamino)-6-(thiazol-5-yl)-1,5-naphthyridine-3-carboxamide]
1.6	802	CC(C)Nc1c(C(=O)NC[C@@H](F)C(C)(C)O)nnc2ccc(-c3cn[nH]c3)cc12 [Example 158, (R)—N-(2-fluoro-3-hydroxy-3-methylbutyl)-4-(isopropylamino)-6-(1H-pyrazol-4-yl) cinnoline-3-carboxamide]
4.7	556	CC(C)Nc1c(C(=O)NCC2CCS(=O)(=O)C2)nnc2ccc(-c3cn[nH]c3)cc12 (centres unmarked) [Example 159, N-((1,1-dioxidotetrahydrothiophen-3-yl)methyl)-4-(isopropylamino)-6-(1H-pyrazol-4-yl)cinnoline-3-carboxamide]
2.7	2090	CC(C)Nc1c(C(=O)NCCN2CCS(=O)(=O)CC2)nnc2ccc(-c3cn[nH]c3)cc12 [Example 160, N-(2-(1,1-dioxidothiomorpholino)ethyl)-4-(isopropylamino)-6-(1H-pyrazol-4-yl)cinnoline-3-carboxamide]
